Data as given in patent US6964959B2, “Use of a methylol-containing compound to treat tumors” (Carter Wallace, Inc., priority 1999, dated 2005).
Entries after “also recorded” stand apart in the source; their conditions may differ.

Assays:
[1] = Taurolidine-induced toxicity in athymic (nude) female mice; type: in vivo; conditions: for mortality (%): i.p., three consecutive days, nude female mice
Experimental: Control animals received 1 ml injections of 5% Kollidon 17PF alone. Animals were examined daily and body weight recorded twice weekly. A reduction in body weight of greater than 10% was considered significant. The maximally tolerated dose (MTD) was considered to be the dose which produced ˜10% mortality.
During the injection regimen, and daily thereafter for 30 d, mice were weighed and examined. Experiments were repeated a minimum of three times and mortality and weight loss data pooled.

human tumor cell lines = assay: Tumor cell killing and apoptosis in culture; type: cell-based
PA-1 [2] = assay: Cell growth inhibition, PA-1 ovarian tumor cells; type: cell-based; conditions: Homo sapiens, PA-1, 72 h, PA-1 (ovary); 3 d exposure; cell number
Experimental: One ml of this cell suspension was added to each well of a 12 well cell culture plate that contained 3 ml of appropriate media plus serum. […] Control wells received 40 μl of 5% Kollidon 17PF alone. Seventy-two hours later, all cells were harvested by trypsinization and cell number determined electronically using a Coulter Model Z1 particle counter (Coulter Corp., Miami, Fla.) to assess cell growth inhibition. Each experiment was performed in duplicate and repeated a minimum of three times.
Cells were seeded at a density of 1-5×10^4 cells in each well of a 6 well tissue culture flask. […] After three days, cells were harvested by trypsinization and cell number determined electronically. Cell growth inhibition was determined by comparison to non-Taurolidine exposed control cultures. The IC50 was calculated as the concentration required to inhibit cell number by 50%.

[3] = system: activated human T-cell cultures; assay: Cytotoxic and apoptotic activity in activated human T-cell cultures; type: cell-based
Source text: (§1) This observation was confirmed using normal (non-tumor) primary cells derived from animals, which are known to be free of tumors.

glioblastoma multiforma = assay: Clinical use in patients with advanced recurrent glioblastoma multiforma; type: in vivo, human
Experimental: Four patients, which were diagnosed with advanced recurrent glioblastoma multiforma, were treated with taurolidine. The prognosis for this group of patients was determined to be approximately 8 weeks of survival.

SKOV-3 = assay: Annexin-V FITC binding (phosphotidylserine externalization), SKOV-3; type: cell-based, human; conditions: 24 h exposure
Experimental: (§2) Three×10^5 cells were seeded in plastic tissue culture flasks. […] Control cultures received an appropriate volume of Kollidine-17P. After an additional 24 h, cells were harvested and phosphotidylserine externalization determined by assessing Annexin-V FITC binding using cytofluorometric techniques. Each bar represents the mean±SE of four determinations. **p≦0.01, ***p≦0.001
(§3) Cell membrane phosphotidylserine externalization, as a reflection of the potential induction of apoptosis, was assessed by flow cytometry methods using the ApoAlert® Annexin-V/FITC assay kit. Briefly, 1×10^6 cells were incubated for 24 h in tissue culture medium containing serum. […] Control cultures received 5% Kollidon 17PF alone. Twenty-four hours later, all cells were harvested by trypsinization. The harvested cells were resuspended in 200 μl of binding buffer and then incubated for 5-15 min in a solution containing 1 μg/ml Annexin-V FITC at room temperature in the dark. The cells were then analyzed to quantitate Annexin-V binding by cytofluorometric techniques that utilized FACScan using the ModFit LT program with statistical analysis as described above.

PA-1 [4] = assay: Annexin-V FITC binding (phosphotidylserine externalization), PA-1; type: cell-based, human; conditions: 24 h exposure
Experimental: as §2, §3

[5] = system: normal murine bone marrow cultures; assay: Cytotoxic and apoptotic activity in normal murine bone marrow cultures; type: cell-based
Source text: as §1

[6] = system: Bcl2-over expressing HL-60 cells; assay: Apoptosis induction in Bcl2-over expressing HL-60 cells; type: cell-based, human
Source text: Human leukemia HL-60 cells, which were genetically-engineered to resist apoptotic induction, were induced to apoptosis independently (downstream) of the bcl-2/bax (anti-death gene) point in the signal transduction cascade.

PARP [7] = assay: Western-blot analysis of PARP cleavage, PA-1 cells; type: cell-based, human; conditions: 24 h exposure to 50 or 100 μM
Experimental: (§4) Two×10^6 cells were seeded in 150 cm^2 tissue culture flasks. […] After an additional twenty-four hours, cells were harvested, cell number determined, and aliquots derived from equal cell numbers generated from each exposure condition. Total proteins from these whole cell lysates were separated by SDS-PAGE and transferred to nitrocellulose filters. Filters were then immunoblotted to detect intact PARP protein and cleavage fragments by using the clone C-2-10 mouse monoclonal anti-PARP antibody (Zymed Laboratories, San Francisco, Calif.). The resulting protein-antibody complexes were visualized by chemiluminescence techniques.
(§5) Western-blot analysis was used to assess of PARP cleavage. Two×10^6 cells were seeded into separate 75 cm^2 tissue culture flasks containing 20 ml of tissue culture media plus serum. […] Twenty-four hours after the addition of Taurolidine, cells were harvested, cell number determined, and aliquots containing an equal cell number were generated from each exposure condition. Total proteins from whole cell lysates generated from these aliquots were separated by SDS-PAGE and electrotransferred to nitrocellulose filters. Filters were then processed to detect intact PARP protein and cleavage fragments by using the clone C-2-10 mouse monoclonal anti-PARP antibody (Zymed Laboratories, San Francisco, Calif.). […]

[8] = system: TNF; interleukins 1, 6, and 10; VEGF; TGF; assay: Angiogenesis factors in patients with metastatic colon cancer; type: in vivo, human; conditions: treated subjects compared to subjects receiving placebo
Experimental: Patients with metastatic colon cancer were treated with taurolidine and several factors controlling angiogenesis were measured.

PARP [9] = assay: Western-blot analysis of PARP cleavage, SKOV-3 cells; type: cell-based, human; conditions: 24 h exposure to 50 or 100 μM
Experimental: as §4, §5

[10] = system: SKOV-3 human ovarian tumor xenografts; assay: i.p. SKOV-3 human ovarian tumor xenografts in female nude mice; type: in vivo
Source text: Fourteen days following the final Taurolidine injection, mice in all groups were sacrificed and the peritoneal cavity examined for the presence of tumors. Each experimental was repeated three times and the pooled number of animals in each group ranged from 15-21.
Fourteen days following the final Taurolidine injection, mice in all groups were sacrificed, i.p. ovarian tumor xenografts removed and tumor weighed. Each experiment was repeated three times and the pooled number of animals in each group ranged from 15-21. Each bar represents the mean (±SE) tumor weight of 15-21 animals. ***p≦0.001, ****p≦0.0001.
To evaluate therapeutic effectiveness, mice received a single intraperitoneal injection of 5×10^6 SKOV-3 cells in a volume of 0.5 ml. Immediately thereafter, mice were randomly divided into treatment groups of 7 animals. […] Control animals received 1 ml injections of 5% Kollidon 17PF alone. Animals were examined daily and body weight recorded twice weekly. […] The mean tumor weight for each treatment group was calculated and statistical analysis of differences in the mean tumor weight between treatment groups employed the Student's t-test. p-values of ≦0.05 were considered significant.

Compound: O=S1(=O)CCN(CN2CCS(=O)(=O)NC2)CN1 [Taurolidine, Bis-(1,1-dioxoperhydro-1,2,4-thiadiazinyl-4)methane]
- mortality (%) ([1]; 10 mg/mouse/inj): 6%
- mortality (%) ([1]; 20 mg/mouse/inj): 13%
- mortality (%) ([1]; 25 mg/mouse/inj): 47%
- mortality (%) ([1]; 30 mg/mouse/inj): 100%
- tolerability ([1]; daily doses below 15 mg/mouse (˜650 mg/kg), 3 d i.p. bolus regimen): well-tolerated
- incubation time after which apoptosis of tumor cells is induced (human tumor cell lines; in culture): as little as one hour
- number of different human tumor cell lines killed (human tumor cell lines; ovarian, breast, brain, colon, prostate, urinary bladder, lung, melanomas, mesotheliomas, laryngeal carcinomas, leukemias, lymphomas): at least 28
- IC50 (PA-1 [2]): ~10 µM
- induction of apoptosis [3]: did not produce cellular changes consistent with the induction of apoptosis
- patients in whom the tumor mass decreased or stayed the same (glioblastoma multiforma; 20 g infused intravenously over 6 hours twice a week, at least one 5 week regimen, four patients): 3 out of the 4
- survival (glioblastoma multiforma; at 14 weeks after the initiation of therapy, prognosis approximately 8 weeks): each of the patients remains alive
- increase in Annexin-V binding (Annexin-V positive cells) (SKOV-3): 3 fold
- increase in Annexin-V binding (Annexin-V positive cells) (PA-1 [4]): 4 fold
- concentrations required to inhibit cell proliferation ([5]; normal murine bone marrow): concentrations in the mM range
- induction of apoptosis ([5]; normal murine bone marrow cultures): did not produce cellular changes consistent with the induction of apoptosis
- induction of apoptosis [6]: capable of inducing apoptosis, but with a delayed onset
- PARP cleavage (PARP [7]): induced PARP cleavage; also recorded: resulted in PARP cleavage
- factors controlling the growth of blood vessels (TNF; interleukins 1, 6, and 10; VEGF; TGF) [8]: found to be decreased
- PARP cleavage (PARP [9]): induced PARP cleavage; also recorded: resulted in PARP cleavage
- ascites formation ([10]; 20 mg/mouse/injection i.p. x 3 d starting on the day of tumor cell injection): no evidence of ascites formation
- tumor formation and growth ([10]; 3 d 20 mg/mouse i.p. regimen, nude mice bearing i.p. human ovarian tumor xenografts): significant inhibition of both tumor formation and growth; also recorded: significantly inhibited tumor development and growth; also recorded: highly effective and inhibited tumor formation
- tumor growth ([10]; single cycle initiated 5 d after tumor cell injection (established i.p. tumors)): significantly inhibiting tumor growth
- mean tumor size in treated mice vs controls ([10]; therapy delayed for up to 3 d after tumor cell injection): significantly smaller than in controls
